Active and inactive are the calls of the source. The rule behind the calls is not given here.
Tests used:
HL-60 [1] = experiment: Cytotoxicity against human HL60 cells after 72 hrs by MTT assay; assay type: functional, cell-based; conditions: HL-60, 72 h
HL-60 [2] = experiment: Cytotoxicity against human HL60 cells at 3 to 60 uM after 24 hrs by MTT assay; assay type: functional, cell-based
PBMC = experiment: Cytotoxicity against human PBMC at 3 to 60 uM after 24 hrs by MTT assay; assay type: cell-based
HL-60 [3] = experiment: Cytotoxicity against human HL60 cells assessed as cell viability at 10 uM after 24 hrs by MTT assay relative to control; assay type: functional; conditions: HL-60, 24 h, read-out: Activity
[4] = Cytotoxicity against human PBMC assessed as cell viability at 10 uM after 24 hrs by MTT assay relative to control; assay type: cell-based; conditions: PBMC (peripheral blood mononuclear cells), read-out: Activity
HL-60 [5] = experiment: Cytotoxicity against human HL60 cells assessed as cell viability at 30 uM after 24 hrs by MTT assay relative to control; assay type: functional; conditions: HL-60, 24 h, read-out: Activity
[6] = Cytotoxicity against human PBMC assessed as cell viability at 30 uM after 24 hrs by MTT assay relative to control; assay type: cell-based; conditions: PBMC (peripheral blood mononuclear cells), read-out: Activity

Compound | IC50 (HL-60 [1]) | Activity (HL-60 [2]) | Activity (PBMC) | also measured
CO[C@H]1C[C@H]2[C@@H](CC[C@H]3C[C@@H](O[C@@H]4O[C@H](CO)[C@@H](O[C@@H]5O[C@@H](C)[C@H](O)[C@@H](O)[C@H]5O)[C@H](O)[C@H]4O[C@@H]4O[C@@H](C)[C@H](O)[C@@H](O)[C@H]4O)CC[C@@]32C)[C@@H]2C[C@@H]3O[C@]4(CC[C@@H](C)CO4)[C@@H](C)[C@@H]3[C@@]12C | 31.5 µM | – | – | –
C[C@@H]1CC[C@@]2(OC1)O[C@H]1C[C@H]3[C@@H]4CC[C@H]5C[C@@H](O[C@@H]6O[C@H](COC(=O)C(C)(C)C)[C@@H](O)[C@H](OC(=O)C(C)(C)C)[C@H]6O)CC[C@]5(C)C4=CC(=O)[C@]3(C)[C@H]1[C@@H]2C | 5.9 µM | – | – | –
CO[C@@H]1C[C@H]2[C@@H](CC[C@H]3C[C@@H](O[C@@H]4O[C@H](CO)[C@@H](O[C@@H]5O[C@@H](C)[C@H](O)[C@@H](O)[C@H]5O)[C@H](O)[C@H]4O[C@@H]4O[C@@H](C)[C@H](O)[C@@H](O)[C@H]4O)CC[C@@]32C)[C@@H]2C[C@@H]3O[C@]4(CC[C@@H](C)CO4)[C@@H](C)[C@@H]3[C@@]12C | 21.8 µM | – | – | –
C=C1C[C@H]2[C@@H](CC[C@H]3C[C@@H](O[C@@H]4O[C@H](COC(=O)C(C)(C)C)[C@@H](O)[C@H](OC(=O)C(C)(C)C)[C@H]4O)CC[C@@]32C)[C@@H]2C[C@@H]3O[C@]4(CC[C@@H](C)CO4)[C@@H](C)[C@@H]3[C@@]12C | 15.7 µM | Active | Toxic | –
C[C@@H]1CC[C@@]2(OC1)O[C@H]1C[C@H]3[C@@H]4CC[C@H]5C[C@@H](O[C@@H]6O[C@H](COC(=O)C(C)(C)C)[C@@H](O)[C@H](OC(=O)C(C)(C)C)[C@H]6O)CC[C@]5(C)[C@H]4CC[C@]3(C)[C@H]1[C@@H]2C | 8.9 µM | Active | Toxic | –
C[C@@H]1CC[C@@]2(OC1)O[C@H]1C[C@H]3[C@@H]4CC[C@H]5C[C@@H](O[C@@H]6O[C@H](COC(=O)C(C)(C)C)[C@@H](O)[C@H](OC(=O)C(C)(C)C)[C@H]6O)CC[C@]5(C)[C@H]4CC(=O)O[C@]3(C)[C@H]1[C@@H]2C | 9.9 µM | Active | Toxic | –
CO[C@H]1C[C@H]2[C@@H](CC[C@H]3C[C@@H](O[C@@H]4O[C@H](COC(=O)C(C)(C)C)[C@@H](O)[C@H](OC(=O)C(C)(C)C)[C@H]4O)CC[C@@]32C)[C@@H]2C[C@@H]3O[C@]4(CC[C@@H](C)CO4)[C@@H](C)[C@@H]3[C@@]12C | 21.5 µM | – | – | –
C[C@@H]1CC[C@@]2(OC1)O[C@H]1C[C@H]3[C@@H]4CC[C@H]5C[C@@H](O[C@@H]6O[C@H](CO)[C@@H](O[C@@H]7O[C@@H](C)[C@H](O)[C@@H](O)[C@H]7O)[C@H](O)[C@H]6O[C@@H]6O[C@@H](C)[C@H](O)[C@@H](O)[C@H]6O)CC[C@]5(C)[C@H]4CC[C@]3(C)[C@H]1[C@@H]2C | 2.6 µM | – | – | viability at 10 µM (HL-60 [3]): 17%; viability at 24 h, 10 µM [4]: 45%
C=C1C[C@H]2[C@@H](CC[C@H]3C[C@@H](O[C@@H]4O[C@H](CO)[C@@H](O[C@@H]5O[C@@H](C)[C@H](O)[C@@H](O)[C@H]5O)[C@H](O)[C@H]4O[C@@H]4O[C@@H](C)[C@H](O)[C@@H](O)[C@H]4O)CC[C@@]32C)[C@@H]2C[C@@H]3O[C@]4(CC[C@@H](C)CO4)[C@@H](C)[C@@H]3[C@@]12C | 9.7 µM | – | – | viability at 30 µM (HL-60 [5]): 23%; viability at 24 h, 30 µM [6]: 64.2%
C[C@@H]1CC[C@@]2(OC1)O[C@H]1C[C@H]3[C@@H]4CC[C@H]5C[C@@H](O[C@@H]6O[C@H](CO)[C@@H](O[C@@H]7O[C@@H](C)[C@H](O)[C@@H](O)[C@H]7O)[C@H](O)[C@H]6O[C@@H]6O[C@@H](C)[C@H](O)[C@@H](O)[C@H]6O)CC[C@]5(C)C4=CC(=O)[C@]3(C)[C@H]1[C@@H]2C | 30.4 µM | – | – | –
CO[C@@H]1C[C@H]2[C@@H](CC[C@H]3C[C@@H](O[C@@H]4O[C@H](COC(=O)C(C)(C)C)[C@@H](O)[C@H](OC(=O)C(C)(C)C)[C@H]4O)CC[C@@]32C)[C@@H]2C[C@@H]3O[C@]4(CC[C@@H](C)CO4)[C@@H](C)[C@@H]3[C@@]12C | 19.2 µM | Active | Toxic | –
C[C@@H]1CC[C@@]2(OC1)O[C@H]1C[C@@H]([C@@H]3CC[C@H]4C[C@@H](O[C@@H]5O[C@H](CO)[C@@H](O[C@@H]6O[C@@H](C)[C@H](O)[C@@H](O)[C@H]6O)[C@H](O)[C@H]5O[C@@H]5O[C@@H](C)[C@H](O)[C@@H](O)[C@H]5O)CC[C@]4(C)[C@H]3CC(=O)O)[C@](C)(O)[C@H]1[C@@H]2C | > 100 µM | – | – | –

Source: ChEMBL document CHEMBL2046399, “Effect of C-ring modifications on the cytotoxicity of spirostan saponins and related glycosides” (Bioorg Med Chem, 2012)
